Calls of active or inactive are those of the source. No cut-off for these calls is given here.
How the values were obtained:
Kasumi 1 [1] = experiment: Antitumor activity against human Kasumi-1 cells xenografted in CB17 SCID mouse assessed as inhibition of tumor growth at 40 mg/kg, po QD for 25 days; assay type: functional; conditions: Kasumi 1, po, 600 h, time 25 day, read-out: TGI
[2] = Oral bioavailability in CD-1 mouse at 10 mg/kg; assay type: ADME, organism-based; conditions: mouse, in vivo, 10 mg/kg
[3] = AUC(0 to infinity) in CD-1 mouse at 10 mg/kg, po; assay type: ADME, organism-based; parameters: route oral, time infinity, dose 10 mg/kg; conditions: mouse, in vivo
[4] = Stability in rat liver microsomes assessed as half life; assay type: ADME, Microsome
[5] = Toxicity in CD1 mouse assessed as weight loss at 50 to 100 mg/kg, po administered once daily for 5 days and observed for 5 days after last dose; assay type: organism-based; conditions: in vivo, 120 h, dose 50-100 mg/kg, time 5 day
[6] = Toxicity in CD1 mouse assessed as clinical abnormalities at 50 to 100 mg/kg, po administered once daily for 5 days and observed for 5 days after last dose; assay type: organism-based; conditions: in vivo, 120 h, dose 50-100 mg/kg, time 5 day
[7] = Toxicity in CD1 mouse assessed as mortality at 50 to 100 mg/kg, po administered once daily for 5 days and observed for 5 days after last dose; assay type: organism-based; conditions: in vivo, 120 h, dose 50-100 mg/kg, time 5 day
[8] = Apparent permeability across apical to basolateral side in human Caco2 cells; assay type: ADME, cell-based; conditions: caco-2
[9] = Efflux ratio of apparent permeability from basolateral side to apical side over apical side to basolateral side in human Caco2 cells; assay type: ADME, cell-based; conditions: caco-2
CYP3A4 = CYP3A4 (Homo sapiens, UniProt P08684); experiment: Inhibition of human CYP3A4 at 10 uM using testosterone as substrate relative to control; assay type: ADME; conditions: probe testosterone
CYP1A2 = target: T1, CYP1A2 (Homo sapiens, UniProt P05177); experiment: Inhibition of human CYP1A2 at 10 uM relative to control; assay type: ADME
T1 sequence (P05177 whole entry): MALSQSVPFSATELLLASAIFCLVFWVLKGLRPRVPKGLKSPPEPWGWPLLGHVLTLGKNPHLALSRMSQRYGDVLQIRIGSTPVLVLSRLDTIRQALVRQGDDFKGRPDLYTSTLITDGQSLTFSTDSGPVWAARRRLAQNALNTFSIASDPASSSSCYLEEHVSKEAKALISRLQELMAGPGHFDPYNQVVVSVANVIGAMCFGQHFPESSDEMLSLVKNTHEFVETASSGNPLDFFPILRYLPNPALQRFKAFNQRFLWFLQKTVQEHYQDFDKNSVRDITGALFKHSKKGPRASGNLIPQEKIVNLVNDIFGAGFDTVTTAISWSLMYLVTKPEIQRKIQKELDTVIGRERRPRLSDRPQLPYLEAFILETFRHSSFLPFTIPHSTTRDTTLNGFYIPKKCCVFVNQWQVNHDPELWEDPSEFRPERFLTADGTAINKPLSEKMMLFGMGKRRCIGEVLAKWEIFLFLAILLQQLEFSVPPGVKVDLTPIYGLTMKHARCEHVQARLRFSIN

CYP2D6 = CYP2D6 (Homo sapiens, UniProt P10635); experiment: Inhibition of human CYP2D6 at 10 uM relative to control; assay type: ADME
[10] = target: Voltage-gated inwardly rectifying potassium channel KCNH2 (Homo sapiens, UniProt Q12809); experiment: Inhibition of human ERG by manual patch clamp assay
[11] = Toxicity in CB17 SCID mouse xenografted with human Kasumi-1 cells assessed body weight loss at 10 to 40 mg/kg, po QD for 25 days; assay type: organism-based; conditions: in vivo, 600 h, dose 10-40 mg/kg, time 25 day
[12] = Drug uptake in tumor tissue of CB17 SCID mouse xenografted with human Kasumi-1 cells at 40 mg/kg, po QD for 25 days and measured after 24 hrs post last dose; assay type: ADME, organism-based, Neoplasm; conditions: time 25 day, read-out: Drug uptake
Mus musculus [13] = experiment: Antiarthritic activity in collagen/complete freund's adjuvant-induced arthritis DBA/1 mouse model assessed as reduction in arthritis severity score at 50 mg/kg, po administered via gavage once daily starting from day 21 to day 41 post collagen/CFA challenge and measured on day 0, 18, 21 followed by three times weekly up to 42 days; assay type: functional, organism-based; conditions: time 21.0 day
Mus musculus [14] = experiment: Antiarthritic activity in collagen/complete freund's adjuvant-induced arthritis DBA/1 mouse model assessed as paw thickness at 50 mg/kg, po administered via gavage starting from day 21 to day 41 post collagen/CFA challenge and measured on day 21 by caliper analysis (reference value: 2.48 millimeter); assay type: functional; conditions: time 21 day
Mus musculus [15] = experiment: Antiarthritic activity in collagen/complete freund's adjuvant-induced DBA/1 mouse model of arthritis assessed as reduction in joint inflammation at 50 mg/kg, po administered via gavage starting from day 21 to day 41 post collagen/CFA challenge and measured on day 42 by H&E staining based analysis; assay type: functional, organism-based; conditions: time 21.0 day
Mus musculus [16] = experiment: (§1) Antiinflammatory activity in collagen/complete freund's adjuvant-induced arthritis DBA/1 mouse model assessed as IL-1 beta level in rear right paw at 50 mg/kg, po administered via gavage starting from day 21 to day 41 post collagen/CFA challenge and measured on day 42 measured per mg protein (reference value: 3.15 pg); assay type: functional; conditions: time 21 day
Mus musculus [17] = experiment: as §1, with “IL-6” for “IL-1 beta”, “180.7” for “3.15”; assay type: functional; conditions: time 21 day
Kasumi 1 [18] = experiment: Antitumor activity against human Kasumi-1 cells xenografted in CB17 SCID mouse assessed as tumor weight at 10 mg/kg, po QD for 29 days (reference value: 2.1+/- 0.3 g); assay type: functional; conditions: time 29 day
Kasumi 1 [19] = experiment: Antitumor activity against human Kasumi-1 cells xenografted in CB17 SCID mouse assessed as inhibition of tumor growth at 10 mg/kg, po QD for 29 days; assay type: functional; conditions: Kasumi 1, po, 696 h, time 29 day, read-out: TGI
[20] = target: T2, Bromodomain-containing protein 4 (Homo sapiens, UniProt O60885); experiment: Inhibition of human full-length recombinant N-terminal His-tagged BRD4 (2 to 1362 residues) expressed in Sf9 cells using histone H4 peptide containing acetylated lysine residues as substrate preincubated with enzyme for 30 mins followed by incubation with substrate for 30 mins by Alphascreen assay […]
[21] = target: T3, Bromodomain-containing protein 2 (Homo sapiens, UniProt P25440); experiment: Binding affinity to human partial length BRD2 (BD1,2) (K71 to D455 residues) expressed in bacterial expression system by BROMOscan assay
[22] = target: T3, Bromodomain-containing protein 2; experiment: Binding affinity to human partial length BRD2 (BD2) (E348 to D455 residues) expressed in bacterial expression system by BROMOscan assay
[23] = target: T4, Bromodomain-containing protein 3 (Homo sapiens, UniProt Q15059); experiment: Binding affinity to human partial length BRD3 (BD1) (P24 to E144 residues) expressed in bacterial expression system by BROMOscan assay
[24] = target: T4, Bromodomain-containing protein 3; experiment: Binding affinity to human partial length BRD3 (BD1,2) (P24 to P416 residues) expressed in bacterial expression system by BROMOscan assay
[25] = target: T4, Bromodomain-containing protein 3; experiment: Binding affinity to human partial length BRD3 (BD2) (G306 to P416 residues) expressed in bacterial expression system by BROMOscan assay
[26] = target: T2, Bromodomain-containing protein 4; experiment: Binding affinity to human partial length BRD4 (BD2) (K333 to E460 residues) expressed in bacterial expression system by BROMOscan assay
[27] = target: Bromodomain testis-specific protein (Homo sapiens, UniProt Q58F21); experiment: Binding affinity to human partial length BRDT (BD2) (K250 to E382 residues) expressed in bacterial expression system by BROMOscan assay

T4 sequence (Q15059 whole entry, the tested form may be a part): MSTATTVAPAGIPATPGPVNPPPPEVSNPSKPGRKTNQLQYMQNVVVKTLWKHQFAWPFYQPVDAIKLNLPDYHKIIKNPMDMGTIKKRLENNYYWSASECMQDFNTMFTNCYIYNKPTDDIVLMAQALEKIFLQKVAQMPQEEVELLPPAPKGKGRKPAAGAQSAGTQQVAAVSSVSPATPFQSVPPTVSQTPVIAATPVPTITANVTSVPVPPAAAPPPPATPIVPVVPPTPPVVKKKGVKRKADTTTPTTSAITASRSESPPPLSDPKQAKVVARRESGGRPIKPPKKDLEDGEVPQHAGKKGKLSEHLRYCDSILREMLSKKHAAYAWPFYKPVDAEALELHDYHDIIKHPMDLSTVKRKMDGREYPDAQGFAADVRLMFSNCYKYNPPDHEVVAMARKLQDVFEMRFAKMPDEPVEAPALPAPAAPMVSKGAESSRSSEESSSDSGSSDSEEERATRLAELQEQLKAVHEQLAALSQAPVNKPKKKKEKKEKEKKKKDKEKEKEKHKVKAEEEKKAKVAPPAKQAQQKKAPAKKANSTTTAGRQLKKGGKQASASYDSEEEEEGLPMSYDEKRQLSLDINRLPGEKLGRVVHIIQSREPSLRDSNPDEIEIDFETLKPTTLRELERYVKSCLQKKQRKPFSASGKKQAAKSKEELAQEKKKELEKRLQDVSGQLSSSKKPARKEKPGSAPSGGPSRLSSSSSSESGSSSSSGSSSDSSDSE
T3 sequence (P25440 whole entry, the tested form may be a part): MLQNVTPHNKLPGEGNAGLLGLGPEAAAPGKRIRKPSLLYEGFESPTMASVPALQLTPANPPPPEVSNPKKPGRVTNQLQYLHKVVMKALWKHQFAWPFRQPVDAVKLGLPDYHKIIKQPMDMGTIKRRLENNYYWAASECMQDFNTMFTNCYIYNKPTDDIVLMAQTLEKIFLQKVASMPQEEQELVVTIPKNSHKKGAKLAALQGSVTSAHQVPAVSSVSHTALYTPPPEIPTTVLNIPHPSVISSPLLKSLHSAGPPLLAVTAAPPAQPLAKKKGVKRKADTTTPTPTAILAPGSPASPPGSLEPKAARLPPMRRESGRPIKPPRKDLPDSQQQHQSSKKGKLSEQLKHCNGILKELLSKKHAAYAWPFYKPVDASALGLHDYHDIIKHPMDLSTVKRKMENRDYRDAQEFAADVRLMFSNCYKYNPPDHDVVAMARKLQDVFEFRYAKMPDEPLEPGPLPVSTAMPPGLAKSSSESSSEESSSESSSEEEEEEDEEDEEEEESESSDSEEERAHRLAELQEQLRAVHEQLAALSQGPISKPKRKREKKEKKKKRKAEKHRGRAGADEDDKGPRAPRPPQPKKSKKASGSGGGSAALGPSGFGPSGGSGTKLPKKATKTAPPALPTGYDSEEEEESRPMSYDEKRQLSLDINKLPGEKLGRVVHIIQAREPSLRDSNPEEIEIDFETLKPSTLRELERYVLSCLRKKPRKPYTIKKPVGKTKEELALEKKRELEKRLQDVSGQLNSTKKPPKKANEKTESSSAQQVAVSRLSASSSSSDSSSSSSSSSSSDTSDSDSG
Sequence of Voltage-gated inwardly rectifying potassium channel KCNH2 (Q12809 whole entry): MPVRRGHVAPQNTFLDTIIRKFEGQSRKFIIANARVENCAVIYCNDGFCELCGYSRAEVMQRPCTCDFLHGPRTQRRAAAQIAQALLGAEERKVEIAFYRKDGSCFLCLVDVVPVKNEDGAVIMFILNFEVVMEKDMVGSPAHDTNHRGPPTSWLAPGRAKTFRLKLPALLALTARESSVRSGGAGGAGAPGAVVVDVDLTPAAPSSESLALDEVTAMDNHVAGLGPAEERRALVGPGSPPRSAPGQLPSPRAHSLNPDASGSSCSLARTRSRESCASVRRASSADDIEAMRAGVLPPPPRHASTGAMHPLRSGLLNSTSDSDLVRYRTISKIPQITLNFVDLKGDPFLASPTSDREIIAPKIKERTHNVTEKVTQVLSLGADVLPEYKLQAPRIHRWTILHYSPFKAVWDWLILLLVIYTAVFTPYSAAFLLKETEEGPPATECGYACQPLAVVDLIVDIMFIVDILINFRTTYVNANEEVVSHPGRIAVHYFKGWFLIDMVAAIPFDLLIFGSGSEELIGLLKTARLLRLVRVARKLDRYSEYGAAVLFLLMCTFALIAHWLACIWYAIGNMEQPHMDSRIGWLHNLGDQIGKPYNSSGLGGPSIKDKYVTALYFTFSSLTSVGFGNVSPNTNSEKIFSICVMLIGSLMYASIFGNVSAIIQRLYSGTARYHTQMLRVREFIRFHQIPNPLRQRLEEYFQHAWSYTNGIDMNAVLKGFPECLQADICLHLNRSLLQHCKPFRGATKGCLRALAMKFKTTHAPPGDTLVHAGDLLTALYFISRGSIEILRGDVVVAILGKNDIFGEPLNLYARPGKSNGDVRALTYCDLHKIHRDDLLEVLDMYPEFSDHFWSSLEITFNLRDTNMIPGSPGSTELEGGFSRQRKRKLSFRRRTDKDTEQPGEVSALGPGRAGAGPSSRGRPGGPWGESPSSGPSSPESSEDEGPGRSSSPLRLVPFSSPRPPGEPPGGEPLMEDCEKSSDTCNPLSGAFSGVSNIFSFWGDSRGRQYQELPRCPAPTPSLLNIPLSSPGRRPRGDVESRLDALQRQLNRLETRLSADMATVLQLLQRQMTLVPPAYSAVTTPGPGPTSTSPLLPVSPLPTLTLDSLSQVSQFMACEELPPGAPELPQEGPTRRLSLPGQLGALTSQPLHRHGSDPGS
Sequence of CYP2D6 (P10635 whole entry): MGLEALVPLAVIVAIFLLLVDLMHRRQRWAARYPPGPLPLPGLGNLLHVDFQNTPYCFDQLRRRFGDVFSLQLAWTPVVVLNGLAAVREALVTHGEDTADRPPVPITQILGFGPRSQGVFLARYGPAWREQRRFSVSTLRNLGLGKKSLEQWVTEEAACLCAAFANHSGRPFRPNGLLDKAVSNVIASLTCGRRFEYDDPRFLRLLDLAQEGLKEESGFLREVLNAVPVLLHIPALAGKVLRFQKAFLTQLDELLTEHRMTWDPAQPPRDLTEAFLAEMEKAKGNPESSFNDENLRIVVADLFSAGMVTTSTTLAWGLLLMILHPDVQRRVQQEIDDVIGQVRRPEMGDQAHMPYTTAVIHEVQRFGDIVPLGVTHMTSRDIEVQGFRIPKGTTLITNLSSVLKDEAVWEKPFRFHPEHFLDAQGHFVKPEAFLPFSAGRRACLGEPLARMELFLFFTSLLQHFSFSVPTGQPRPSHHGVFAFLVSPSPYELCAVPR
Sequence of CYP3A4 (P08684 whole entry): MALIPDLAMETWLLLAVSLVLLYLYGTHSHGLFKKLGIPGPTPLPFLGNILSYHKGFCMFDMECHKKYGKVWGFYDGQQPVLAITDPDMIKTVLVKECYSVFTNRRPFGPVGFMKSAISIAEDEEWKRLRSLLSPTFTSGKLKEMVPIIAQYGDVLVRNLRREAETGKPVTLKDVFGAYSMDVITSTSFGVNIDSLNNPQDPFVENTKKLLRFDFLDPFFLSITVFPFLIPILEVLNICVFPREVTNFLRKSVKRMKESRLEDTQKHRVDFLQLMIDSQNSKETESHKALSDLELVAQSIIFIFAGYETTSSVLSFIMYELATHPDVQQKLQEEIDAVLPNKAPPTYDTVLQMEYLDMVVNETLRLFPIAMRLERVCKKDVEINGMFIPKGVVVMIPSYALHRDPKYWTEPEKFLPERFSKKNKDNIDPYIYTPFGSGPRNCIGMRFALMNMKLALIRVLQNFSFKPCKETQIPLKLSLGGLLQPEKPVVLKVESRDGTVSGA

## Cc1noc(C)c1-c1ccc2nc(-c3cnn(CC(C)(C)O)c3)nc(N3CCOC[C@@H]3c3ccccc3)c2c1
Kasumi 1 [1]
  inhibition in vivo at 40 mg/kg: 98.6%
[2]
  F: 75%
[3]
  AUC: 18927 ng·h/mL
[4]
  half-life: 42 min
[5]
  Activity: Non-Toxic
[6]
  Activity: Non-Toxic
[7]
  Activity: Non-Toxic
[8]
  Papp: 18.2 10^-6 cm/s
[9]
  Ratio: 1
CYP3A4
  inhibition at 10 µM: < 50%
CYP1A2
  inhibition at 10 µM: < 50%
CYP2D6
  inhibition at 10 µM: < 50%
[10]
  IC50: 6500 nM
[11]
  Activity: Non-Toxic
[12]
  concentration at 600 h: 2260 ng/g
Mus musculus [13]
  Activity: Active
Mus musculus [14]
  Activity: 1.83 mm
Mus musculus [15]
  Activity: Active
Mus musculus [16]
  Activity: 2.06 pg
Mus musculus [17]
  Activity: 21.62 pg
Kasumi 1 [18]
  Activity: 1.22 g
Kasumi 1 [19]
  inhibition in vivo at 10 mg/kg: 41.9%
[20]
  IC50: 14 nM
[21]
  Kd: 87 nM
[22]
  Kd: 200 nM
[23]
  Kd: 11 nM
[24]
  Kd: 29 nM
[25]
  Kd: 44 nM
[26]
  Kd: 81 nM
[27]
  Kd: 160 nM

From ChEMBL document CHEMBL4665641, “Lead optimization and efficacy evaluation of quinazoline-based BET family inhibitors for potential treatment of cancer and inflammatory diseases” (Bioorg Med Chem Lett, 2019)
